Laboratory results as given in the supplement of paper PMC10307832.

What was measured:
Test in all cases: relative viability (nuclei count vs DMSO), 5 days (fraction); higher = more cells survive
[1] = compound: C=CCn1c(=O)c2cnc(Nc3ccc(N4CCN(C)CC4)cc3)nc2n1-c1cccc(C(C)(C)O)n1 [Adavosertib] + Nc1ncn([C@H]2C[C@H](O)[C@@H](CO)O2)c(=O)n1 [Decitabine] (partner 2 µM)
Outline: (§1)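 Lung cancer cell lines were pin-tool dosed in 1536-well plates on the day after seeding, with either a lone drug or a fixed anchor-drug dose plus five library-drug doses (not always all listed) in √10 steps. Nuclei were counted on 4× images after 5 days. Relative viability is the ratio of treated-well to vehicle-well nuclei counts, with each value a median of duplicate plates.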

[2] = compound: C=CCn1c(=O)c2cnc(Nc3ccc(N4CCN(C)CC4)cc3)nc2n1-c1cccc(C(C)(C)O)n1 [Adavosertib] + O=C(CCCCCCC(=O)Nc1ccccc1)NO [Vorinostat] (partner 1 µM)
Outline: as §1

[3] = compound: COc1nc(N)nc2c1ncn2[C@@H]1O[C@H](CO)[C@@H](O)[C@@H]1O [Nelarabine] + CC1(C)CCC(c2ccc(Cl)cc2)=C(CN2CCN(c3ccc(C(=O)NS(=O)(=O)c4ccc(N[C@H](CCN5CCOCC5)CSc5ccccc5)c(S(=O)(=O)C(F)(F)F)c4)cc3)CC2)C1 [Navitoclax] (partner 0.5 µM)
Outline: as §1

[4] = compound: C=CCn1c(=O)c2cnc(Nc3ccc(N4CCN(C)CC4)cc3)nc2n1-c1cccc(C(C)(C)O)n1 [Adavosertib] + COc1cc2c(Oc3ccc(NC(=O)C4(C(=O)Nc5ccc(F)cc5)CC4)cc3F)ccnc2cc1OCCCN1CCOCC1 [Foretinib] (partner 0.25 µM)
Outline: as §1

Cell Line | relative viability ([1]; first compound 0.01 µM) | relative viability ([1]; first compound 0.03162 µM) | relative viability ([1]; first compound 0.1 µM) | relative viability ([1]; first compound 0.3162 µM) | relative viability ([2]; first compound 0.01 µM) | relative viability ([2]; first compound 0.03162 µM) | relative viability ([2]; first compound 0.1 µM) | relative viability ([2]; first compound 0.3162 µM) | relative viability ([3]; first compound 0.03162 µM) | relative viability ([3]; first compound 0.1 µM) | relative viability ([3]; first compound 0.3162 µM) | relative viability ([3]; first compound 1 µM) | relative viability ([4]; first compound 0.01 µM) | relative viability ([4]; first compound 0.03162 µM) | relative viability ([4]; first compound 0.1 µM) | relative viability ([4]; first compound 0.3162 µM) | relative viability ([3]; first compound 0.01 µM)
NCI-H460 | 0.569 | 0.449 | 0.512 | 0.393 | 0.712 | 0.702 | 0.906 | 0.355 | 1.68 | 1.42 | 1.37 | 1.17 | 1.05 | 0.933 | 1.1 | 0.994 | –
NCI-H520 | 0.488 | 0.525 | 0.555 | 0.473 | 0.756 | 0.734 | 0.681 | 0.59 | 0.999 | 1.28 | 1.18 | 1.37 | 0.784 | 0.81 | 0.743 | 0.703 | 1.32
NCI-H596 | 1.1 | 1.02 | 1.02 | 0.866 | 0.691 | 0.637 | 0.613 | 0.415 | 1.13 | 0.959 | 1.04 | 0.994 | 1.01 | 1.03 | 0.87 | 0.755 | 0.986
NCI-H647 | 0.432 | 0.455 | 0.456 | 0.322 | 0.632 | 0.538 | 0.643 | 0.212 | 1.01 | 1.13 | 1.43 | 1.07 | 1.15 | 1.33 | 1.04 | 1.12 | 1.6
NCI-H727 | 0.843 | 0.845 | 0.899 | 0.909 | 0.934 | 1.13 | 1.13 | 1.15 | 0.384 | 0.376 | 0.424 | 0.377 | 0.689 | 1.07 | 0.917 | 0.831 | 0.496
NCI-H838 | 0.516 | 0.53 | 0.612 | 0.497 | 0.706 | 0.694 | 0.701 | 0.67 | 1.13 | 1.22 | 1.26 | 1.25 | 1.06 | 1.06 | 1.04 | 1.19 | 1.48
NCI-H1355 | 0.347 | 0.351 | 0.396 | 0.368 | 0.609 | 0.649 | 0.679 | 0.568 | 0.818 | 0.923 | 1.01 | 0.991 | 1.01 | 1.02 | 0.975 | 0.946 | 1.1
NCI-H1395 | 0.702 | 0.754 | 0.781 | 0.62 | 0.595 | 0.759 | 0.619 | 0.504 | 1.16 | 1.28 | 1.19 | 1.17 | 0.922 | 0.932 | 0.989 | 0.83 | 1.18
NCI-H1437 | 0.57 | 0.633 | 0.636 | 0.618 | 0.985 | 0.784 | 0.936 | 0.816 | 1.16 | 1.09 | 1.05 | 1.03 | 1.2 | 1.35 | 1.27 | 1.25 | 1.38
NCI-H1650 | 0.449 | 0.415 | 0.564 | 0.27 | 0.63 | 0.731 | 0.485 | 0.389 | 1.36 | 1.28 | 1.36 | 1.23 | 1.12 | 1.15 | 1.31 | 0.797 | 1.32
NCI-H1651 | 0.578 | 0.681 | 0.603 | 0.525 | 0.524 | 0.626 | 0.567 | 0.538 | 1.1 | 1.1 | 1.04 | 1.08 | 0.729 | 0.95 | 0.812 | 0.723 | 1.48
NCI-H1666 | 0.629 | 0.616 | 0.73 | 0.703 | 1.06 | 0.865 | 0.935 | 1.01 | 1.08 | 0.807 | 1.07 | 0.937 | 0.93 | 0.953 | 0.961 | 0.887 | 1.08
NCI-H1734 | 0.501 | 0.511 | 0.474 | 0.363 | 0.923 | 0.865 | 0.622 | 0.33 | 0.787 | 0.962 | 0.869 | 0.833 | 0.954 | 0.831 | 0.82 | 0.759 | 1.06
NCI-H1755 | 0.717 | 0.689 | 0.775 | 0.725 | 0.935 | 0.864 | 0.682 | 0.546 | 0.846 | 0.555 | 1.14 | 1.03 | 0.881 | 0.893 | 0.912 | 0.918 | 1.06
NCI-H1793 | 0.37 | 0.477 | 0.521 | 0.358 | 0.695 | 0.739 | 0.581 | 0.745 | 0.552 | 0.433 | 0.47 | 0.385 | 0.633 | 0.599 | 0.644 | 0.508 | 0.46
NCI-H1915 | 0.262 | 0.251 | 0.272 | 0.282 | 0.552 | 0.521 | 0.53 | 0.373 | 0.687 | 0.767 | 0.805 | 0.796 | 1.14 | 1.03 | 1.2 | 1.14 | 0.799

Cell Line | relative viability ([1]; first compound 0.01 µM) | relative viability ([1]; first compound 0.03162 µM) | relative viability ([1]; first compound 0.1 µM) | relative viability ([1]; first compound 0.3162 µM) | relative viability ([2]; first compound 0.01 µM) | relative viability ([2]; first compound 0.03162 µM) | relative viability ([2]; first compound 0.1 µM) | relative viability ([2]; first compound 0.3162 µM) | relative viability ([3]; first compound 0.03162 µM) | relative viability ([3]; first compound 0.1 µM) | relative viability ([3]; first compound 0.3162 µM) | relative viability ([3]; first compound 1 µM) | relative viability ([4]; first compound 0.01 µM) | relative viability ([4]; first compound 0.03162 µM) | relative viability ([4]; first compound 0.1 µM) | relative viability ([4]; first compound 0.3162 µM) | relative viability ([3]; first compound 0.01 µM)
NCI-H1944 | 0.415 | 0.439 | 0.448 | 0.369 | 0.541 | 0.531 | 0.563 | 0.369 | 0.964 | 1.01 | 0.937 | 0.968 | 0.869 | 0.9 | 0.842 | 0.717 | 1.02
NCI-H1975 | 0.37 | 0.412 | 0.439 | 0.399 | 0.973 | 0.676 | 0.676 | 0.571 | 0.948 | 1.26 | 1.39 | 1.14 | 0.967 | 0.962 | 0.878 | 0.778 | 1.27
NCI-H1993 | 0.58 | 0.593 | 0.617 | 0.585 | 0.725 | 0.791 | 0.84 | 1.05 | 0.783 | 0.982 | 1.02 | 0.956 | 0.795 | 0.863 | 0.83 | 0.838 | 1.14
NCI-H2009 | 0.362 | 0.419 | 0.414 | 0.37 | 0.829 | 0.743 | 0.9 | 0.676 | 1.18 | 1.19 | 1.2 | 1.18 | 1.17 | 1.21 | 1.26 | 1.2 | 1.26
NCI-H2023 | 0.203 | 0.224 | 0.191 | 0.141 | 0.671 | 0.494 | 0.348 | 0.16 | 1.17 | 1.03 | 1.07 | 1.01 | 0.85 | 0.933 | 0.916 | 0.568 | 1.26
NCI-H2085 | 0.547 | 0.504 | 0.574 | 0.47 | 0.782 | 0.807 | 0.765 | 0.649 | 1.08 | 1.18 | 1.18 | 1.18 | 0.785 | 0.954 | 0.887 | 0.921 | 1.08
NCI-H2087 | 0.24 | 0.347 | 0.276 | 0.277 | 0.812 | 0.637 | 0.702 | 0.826 | 0.944 | 0.971 | 0.9 | 0.979 | 1.22 | 1.11 | 1.37 | 1.06 | 1.02
NCI-H2126 | 0.518 | 0.596 | 0.512 | 0.568 | 0.738 | 0.759 | 0.781 | 0.789 | 0.748 | 0.786 | 0.816 | 0.743 | 1.27 | 1.22 | 1.15 | 1.16 | 0.869
NCI-H2170 | 0.426 | 0.452 | 0.5 | 0.429 | 0.866 | 0.818 | 0.788 | 0.676 | 0.627 | 0.65 | 0.678 | 0.552 | 1.02 | 0.603 | 0.923 | 1.07 | 0.564
NCI-H2347 | 0.637 | 0.595 | 0.65 | 0.621 | 0.548 | 0.71 | 0.615 | 0.533 | 0.799 | 0.782 | 0.782 | 0.939 | 0.829 | 0.926 | 0.697 | 0.989 | 0.955
NCI-H2405 | – | 0.761 | 0.794 | 0.698 | – | 0.882 | 0.965 | 0.895 | 0.902 | 0.687 | 0.744 | 0.84 | 1.05 | 1.06 | 1.1 | 1.13 | 1
NCI-H3122 | 0.41 | 0.49 | 0.484 | 0.494 | 0.991 | 0.942 | 0.857 | 0.992 | 0.668 | – | 1.04 | 1.05 | 0.982 | 0.931 | 0.956 | 0.996 | 1.04
PC-3 [JPC-3] | – | 0.906 | 0.926 | 0.78 | – | 0.756 | 0.621 | 0.753 | 0.732 | 0.748 | 0.913 | 0.926 | 0.957 | 1.04 | 1.04 | 1.04 | 1.04
PC-14 | 0.249 | 0.226 | 0.259 | 0.101 | 0.841 | 0.85 | 0.638 | 0.183 | 1.11 | 1.05 | 1.05 | 1.03 | 0.934 | 0.957 | 0.933 | 0.636 | 1.09
RERF-LC-KJ | 0.669 | 0.718 | 0.775 | 0.714 | 0.65 | 0.708 | 0.629 | 0.654 | 1.12 | 0.901 | 1.08 | 0.783 | 0.857 | 0.844 | 0.882 | 0.954 | 0.859
